Assay results from patent US6376169B1, “Method for diagnosing a vascular condition” (Queens University at Kingston, priority 1998, dated 2002).
“Also recorded” adds a separate entry of the source. Counter-ions that a name gives are not always drawn. Like-named read-outs stand apart in the source and are kept apart here.

Tests used:
RTP/Drg1 protein = assay: Western blot of RTP/Drg1 protein in MDA-MB-231 cells; type: cell-based, human; settings: 20% oxygen, up to 72 h; 100 μM cobalt chloride, 30 mM Tiron or 100 μM DFO
Description: (§1) To determine whether hypoxia regulates the expression of certain genes (e.g., PAI-1, uPAR, RTP/Drg1) via an iron-containing heme protein, cells were cultured for up to 72 h at 20% oxygen in the presence or absence of either 100 μM cobalt chloride, or 30 mM sodium 4,5-dihydroxybenzene-1,3-disulfonate (Tiron), or 100 μM desferrioxamine mesylate (DFO) (Sigma Chemical CO., St. Louis, Mo.). Further confirmation of the role of a heme protein in hypoxic responses can be achieved by culturing cells under hypoxia in the presence of carbon monoxide, which maintains the heme protein in the oxy state and thereby blocks heme protein-mediated hypoxic responses. Thus, cells were also cultured for 24 h at 37° C. under hypoxic conditions in the presence of 30% carbon monoxide.
Western Blot Analysis. To examine levels of RTP/Drg1 protein, cells were lysed with buffer containing 40 mM HEPES pH 7.2, 100 mM NaCl, 20% glycerol, 0.1 mM EDTA pH 8.0, 0.2% Triton X-100 (polyoxyethylene (10) isooctylphenyl ether), 1 mM DTT, and 2 mM PMSF, and centrifuged briefly at 4° C. The supernatants were collected and stored at −80° C. until use. SDS-PAGE was performed and resolved proteins were transferred to Immobilon-P membranes (Millipore Corp., Bedford, Mass.) using a semi-dry transfer cell (Bio-Rad Laboratories, Mississauga, ON). Membranes were blocked by incubation overnight at 4° C. in a PBS-buffered solution containing 0.01% Tween 20 (polyoxyethylene(20) sorbitan monolaurate) (PBS-T) and 5% casein. The blots were then incubated with polyclonal rabbit anti-Drg1 antiserum followed by incubation with a peroxidase labeled goat anti-rabbit IgG secondary antibody (Vector Lab. Inc., Burlingame, Calif.). Antigen was detected by enhanced chemiluminescence (ECL, Amersham Canada Inc., Oakville, ON) and exposure of the membrane onto Dupont Reflection NEF film (Dupont Canada, Inc., Mississauga ON).

RTP/Drg1 mRNA = assay: Northern blot of RTP/Drg1 mRNA in MDA-MB-231 cells; type: cell-based, human; settings: 20% oxygen, up to 72 h; 100 μM cobalt chloride, 30 mM Tiron or 100 μM DFO
Description: as §1
Northern Blot Analysis. Total RNA was isolated from cell lines as described above. Aliquots of 20 μg were denatured and subjected to electrophoresis in 1% agarose-formaldehyde gels (Sambrook, J., Fritsch, E. F., and Maniatis, T. Molecular Cloning: A Laboratory Manual, Cold Spring Harbor Laboratory, Cold Spring Harbor, N.Y. (1989)). RNA was transferred to nylon membranes (Micron Separations, Inc., Westboro, Mass.). After prehybridization at 42° C. for 2-3 h in 50% formamide, 5×Denhardt's solution, 0.5% sodium dodecyl sulfate (SDS), 6×SSC (1×SSC: 0.15M NaCl, 15 mM sodium citrate, pH 7.0), and 100 μg/mL denatured salmon sperm DNA, membranes were hybridized for a period of time of overnight (˜18 h) to about 72 h at 42° C. with a cDNA probe (e.g., RTP/Drg1, PAI-1 (PAI-1 cDNA provided by Dr. Keith McCrae, Temple University School of Medicine, Philadelphia, Pa.), uPAR (Higazi A, et al., J Biol Chem 266:12752, (1995)) pre-labeled with [^32P]-dCTP using a Pharmacia Oligolabelling kit (Pharmacia Biotech, Piscataway, N.J.). The hybridization solution contained 6×SSC, 0.5% SDS, 100 μg/mL denatured salmon sperm DNA, 50% formamide and cDNA probe. After hybridization, the membranes were washed with 2×SSC and 0.5% SDS at room temperature for 15 min, 2×SSC and 0.1% SDS at room temperature for 15 min, and 0.1×SSC and 0.5% SDS for 30 min. Dupont Reflection NEF film (Dupont Canada, Inc., Mississauga, ON) was exposed to the membranes for 1-3 days at −80° C. Bands on radiographic film were analyzed using a SigmaGel gel analysis software package (Jandel Scientific Software, San Rafael, Calif.).

hepatic cytochromes P450 = settings: literature; cited from earlier work
RTP/Drg1 [1] = settings: endothelial cells treated with homocysteine; cited from earlier work
RTP/Drg1 [2] = settings: A549 cells exposed to nickel; cited from earlier work
APO-induced erections = assay: Apomorphine (APO) bioassay of erectile function; type: in vivo, Wistar rats
From the text: 16 adult male Wistar rats from Charles River Laboratories (Montreal, Quebec) weighing 300-350 g were used in the investigation. The animals were divided into two study groups. The animals were individually housed in a climate-controlled room under a 12-hour light/dark cycle and allowed access to food (Purina Lab Chow) and water ad libitum. All procedures were in accordance with the guidelines set out by the Canadian Council on Animal Care. The animals were allowed to acclimate 5 days prior to testing and were handled by the researcher during this time.
The apomorphine (APO) bioassay of erectile function was performed in an isolated area. […] The animals were each placed in a separate hanging wire test cage in an isolated, dark and sound proof room and allowed to acclimatize to the surroundings for 10 minutes. Each rat received 80 ug/kg APO (Sigma Chemical Co., St. Louis, Mo.) prepared in physiological saline containing […] ascorbic acid via subcutaneous (s.c.) injection (lml/kg at the nape of the neck). Erectile and yawning responses to APO were monitored and recorded (30 minutes) in an adjacent room via a video monitoring system.
(§2) An erection was counted when an engorged glans penis and distal shaft were exposed. A wide opening of the mouth associated with appropriate respiratory movement identified a yawn. […] Rats with unsatisfactory control erectile response were removed from further study.
Yawns were not altered in either protocol (data not shown).
The 270 mg/kg dose was prepared, requiring initial heating and stirring. This dose was administered in a single injection (1 ml/kg, i.p. of a 270 mg/ml concentration) half an hour prior to the commencement of APO-induced erectile monitoring.
At one week intervals, rats were given single, increasing doses of flutamide (25, 35, or 50 mg/kg) (Sigma Chemical Co., St. Louis, Mo.). For each dose, flutamide was dissolved in peanut oil and administered via i.p injection in a volume of 1 ml/kg. […] Each dose of flutamide was given 1 week after the previous dose, to allow APO-induced erections to return to control levels.
From the group of 8 rats, 4 rats were randomly selected.
Testosterone was administered in an attempt to recover APO-induced erections to control levels.
The required testosterone concentrations were prepared using 100 mg/ml testosterone propionate (Taro Pharmaceuticals, Brarnalea, ON.) diluted in peanut oil. Each dose was administered in a 1 ml/kg volume.
For each APO testing protocol, the average number of erections and standard deviation was determined. […] Therefore, each rat served as its own control. Treated values were compared to control values using Student's paired t-test, except where noted in Study 2b.

APO-induced yawns = assay: APO-induced yawning response; type: in vivo, Wistar rats
Description: The apomorphine (APO) bioassay of erectile function was performed in an isolated area. The rat model of APO-induced erections used to assess the effects of p,p-DDE and flutamide on erectile function was based on the model developed by Heaton et al J Urol. 145:1099 (1991). The animals were each placed in a separate hanging wire test cage in an isolated, dark and sound proof room and allowed to acclimatize to the surroundings for 10 minutes. Each rat received 80 ug/kg APO (Sigma Chemical Co., St. Louis, Mo.) prepared in physiological saline containing […] ascorbic acid via subcutaneous (s.c.) injection (lml/kg at the nape of the neck). Erectile and yawning responses to APO were monitored and recorded (30 minutes) in an adjacent room via a video monitoring system.
as §2

[3] = pubertal or adults rats, Kelce et al; cited from earlier work
uPAR mRNA = assay: Northern blot of uPAR mRNA in HTR-8/SVneo cells; type: cell-based, human; settings: 10 ng/ml VEGF, 24 h, normoxic conditions
Description: as §1, with “Thus, cells were also cultured for 24 h at 37° C. under hypoxic conditions in the presence of 30% carbon monoxide.” left out
Northern Blot Analysis. Total RNA was isolated from cell lines as described above. […] RNA was transferred to nylon membranes (Micron Separations, Inc., Westboro, Mass.). […] The hybridization solution contained 6×SSC, 0.5% SDS, 100 μg/mL denatured salmon sperm DNA, 50% formamide and cDNA probe. After hybridization, the membranes were washed with 2×SSC and 0.5% SDS at room temperature for 15 min, 2×SSC and 0.1% SDS at room temperature for 15 min, and 0.1×SSC and 0.5% SDS for 30 min. Dupont Reflection NEF film (Dupont Canada, Inc., Mississauga, ON) was exposed to the membranes for 1-3 days at −80° C. Bands on radiographic film were analyzed using a SigmaGel gel analysis software package (Jandel Scientific Software, San Rafael, Calif.).

uPAR = settings: vascular endothelial cells; cited from earlier work

With `CC(=O)N(O)CCCCCNC(=O)CCC(=O)N(O)CCCCCNC(=O)CCC(=O)N(O)CCCCCN` [DFO, desferrioxamine mesylate] the “levels of RTP/Drg1 protein” value (RTP/Drg1 protein) was “time-dependent increases in RTP/Drg1 protein” and the “levels of RTP/Drg1 mRNA” value (RTP/Drg1 mRNA) was “time-dependent increases in RTP/Drg1 mRNA”.

In the case of `CC(C)C(=O)Nc1ccc([N+](=O)[O-])c(C(F)(F)F)c1` [flutamide], the “metabolism upon administration / absorption” value (hepatic cytochromes P450) is listed as “rapidly metabolised by hepatic cytochromes P450”.

For `N[C@@H](CCS)C(=O)O` [homocysteine], the “expression of RTP/Drg1” value (RTP/Drg1 [1]) is listed as “increased”.

In the case of `[Ni]` [nickel], the “expression of RTP/Drg1” value (RTP/Drg1 [2]) is given as “increased”.

In the case of `ClC(Cl)=C(c1ccc(Cl)cc1)c1ccc(Cl)cc1` [p,p-DDE], the APO-induced erections (APO-induced erections; 270 mg/kg p,p-DDE i.p., 5 hour testing period, Study 1) is reported as “no significant effect”, the APO-induced erectile response (APO-induced erections; 500 mg/kg p,p-DDE i.p., 3 hours after administration, Study 1) is reported as “significant decrease” and the “APO-induced erectile response two weeks after administration” value (APO-induced erections; 500 mg/kg p,p-DDE vs control and 50 mg/kg flutamide) is reported as “significantly different from controls and from the flutamide two week response; also recorded: remained significantly lower than controls; also recorded: significantly different from both control and 50 mg/kg flutamide responses”. For the same molecule, the “APO-induced erections, time course” value (APO-induced erections; single dose 500 mg/kg p,p-DDE, 0.5, 4, 12, 24 hours and 2 weeks, 500 mg/kg) was “significantly decreased; also recorded: persistently suppressed”, the APO-induced yawns (APO-induced yawns; 500 mg/kg p,p-DDE, two week assessment) was “not significantly different from control levels; also recorded: little effect” and the APO-induced yawning responses (APO-induced yawns; p,p-DDE treatment, Study 1) was “not altered”. For the same molecule, the “metabolism upon administration / absorption” value (hepatic cytochromes P450) was “not metabolised” and the plasma testosterone levels [3] was “did not alter plasma testosterone levels”.

For `CCC(=O)O[C@H]1CC[C@H]2[C@@H]3CCC4=CC(=O)CC[C@]4(C)[C@H]3CC[C@]12C` [testosterone, testosterone propionate], the “APO-induced erections in p,p-DDE treated rats after testosterone supplementation” value (APO-induced erections; 480 ug/kg, 1.2 or 2.4 mg/kg i.p., 0.5, 4, 12 hours, two weeks after p,p-DDE) was “no significant increases in erections; also recorded: remained significantly decreased at most of the time points; also recorded: failed to return APO-induced erections to control levels” and the “APO-induced yawning responses after testosterone supplementation” value (APO-induced yawns; p,p-DDE treated rats, 12 hour test periods) was “did not change the status of yawning responses”.

For VEGF, the “induction of uPAR mRNA” value (uPAR mRNA) is given as “did not result in increased levels of uPAR transcript; also recorded: does not induce” and the “expression of uPAR” value (uPAR) is given as “increases the expression of uPAR”.
